Consider four molecules from ChEMBL document CHEMBL1142480, “Use of the X-ray structure of the beta2-adrenergic receptor for drug discovery. Part 2: Identification of active compounds” (Bioorg Med Chem Lett, 2008).

The assay concerns the target Beta-2 adrenergic receptor (Homo sapiens, UniProt P07550).

Chain of Beta-2 adrenergic receptor (P07550 whole entry): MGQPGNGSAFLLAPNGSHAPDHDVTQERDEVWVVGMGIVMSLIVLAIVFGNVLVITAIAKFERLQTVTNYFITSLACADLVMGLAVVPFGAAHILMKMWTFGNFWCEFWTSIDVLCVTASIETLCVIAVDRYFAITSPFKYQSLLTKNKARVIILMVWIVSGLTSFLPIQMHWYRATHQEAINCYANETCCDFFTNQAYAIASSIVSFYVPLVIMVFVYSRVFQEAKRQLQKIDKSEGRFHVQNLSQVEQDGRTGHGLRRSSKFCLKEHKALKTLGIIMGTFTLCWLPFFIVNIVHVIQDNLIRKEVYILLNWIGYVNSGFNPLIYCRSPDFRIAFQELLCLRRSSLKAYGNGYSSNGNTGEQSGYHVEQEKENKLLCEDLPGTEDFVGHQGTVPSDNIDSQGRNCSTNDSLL
Description: Displacement of [3H]DHA from human beta2 adrenoceptor by liquid scintillation counter

Broadly, the Ki is the equilibrium dissociation constant of an inhibitor or competing ligand from its target. The low end stands for a stronger hold on the target, the high end for a looser hold on the target. `Cc1c[nH]c2cccc(OCC(O)CN3CCN(C(c4ccccc4)c4ccccc4)CC3)c12` (centres undefined) registered a Ki of 0.311 nM.
The same measure for `CC(C)(C)NCC(O)COc1cccc2[nH]cc(CC(N)=O)c12` (centres undefined): 23.5 nM; for `N#Cc1cc2c(OCC(O)CN3CCN(C(c4ccccc4)c4ccccc4)CC3)cccc2[nH]1` (centres undefined): 57.3 nM.
`CC(C)(C)NCC(O)COc1cccc2oc3ccccc3c12` (centres undefined) registered a Ki of 0.145 nM.
